Laboratory results reported in PMC3459575 (Clinical Interventions in Aging, 2012).

Tests used:
[1] = target: T1, 5α-reductase type 2 (Homo sapiens, UniProt P31213); assay type: cell-based
T1 sequence (P31213 1-254): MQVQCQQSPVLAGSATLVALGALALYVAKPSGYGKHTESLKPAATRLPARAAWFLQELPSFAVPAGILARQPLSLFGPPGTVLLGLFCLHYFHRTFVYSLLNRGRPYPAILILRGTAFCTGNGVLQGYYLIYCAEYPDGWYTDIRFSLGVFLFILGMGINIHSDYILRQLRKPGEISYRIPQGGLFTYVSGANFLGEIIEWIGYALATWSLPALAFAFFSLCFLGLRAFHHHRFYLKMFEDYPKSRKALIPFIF

[2] = target: T2, 5α-reductase type 1 (Homo sapiens, UniProt P18405); assay type: cell-based
T2 sequence (P18405 1-259): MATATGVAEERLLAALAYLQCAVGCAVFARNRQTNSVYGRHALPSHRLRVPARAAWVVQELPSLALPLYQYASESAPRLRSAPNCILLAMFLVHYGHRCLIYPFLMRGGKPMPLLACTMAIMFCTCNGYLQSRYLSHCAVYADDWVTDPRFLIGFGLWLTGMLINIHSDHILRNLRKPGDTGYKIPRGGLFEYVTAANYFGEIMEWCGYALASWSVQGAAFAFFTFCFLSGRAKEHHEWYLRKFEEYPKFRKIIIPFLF

IC50 [1]: ~100 nM
IC50 [2]: ~800 nM
Structure (SMILES): CC(C)(C)NC(=O)[C@H]1CC[C@H]2[C@@H]3CC[C@H]4NC(=O)C=C[C@]4(C)[C@H]3CC[C@]12C [finasteride]
